# PubChem BioAssay AID296 (DTP/NCI, 2004)
# Values joined by “and” are separate entries in the source; they are usually repeats but may differ in a detail not shown here. Equal entries are not always repeated. Inconclusive results are not listed.
# System: MX-1 breast xenograft, nude mice, tumor weight T/C
# Assay: NCI In Vivo Anticancer Drug Screen. Data for tumor model Human Mammary Carcinoma MX-1 Xenograft (intrarenal inoculation) in NU/NU Swiss (nude) mice
# Conditions: endpoint: mean tumor weight change, higher = larger tumour
# Summary of the method: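 Compound dosed to mice with transplantable tumor; vehicle group as control. Endpoint survival or tumour size, reported as T/C.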
# [1] = dose: 50.0 mg/kg/injection, schedule: Q01DX010 (sc), vehicle: saline
# [2] = dose: 200.0 mg/kg/injection, schedule: Q01DX010 (sc), vehicle: saline
# [3] = dose: 300.0 mg/kg/injection, schedule: Q04DX003 (sc), vehicle: Klucel (hydroxypropylcellulose) (HPC)
# [4] = dose: 600.0 mg/kg/injection, schedule: Q04DX003 (sc), vehicle: Klucel (hydroxypropylcellulose) (HPC)
# [5] = dose: 1200.0 mg/kg/injection, schedule: Q04DX003 (sc), vehicle: Klucel (hydroxypropylcellulose) (HPC)
# [6] = dose: 150.0 mg/kg/injection, schedule: Q04DX003 (sc), vehicle: Klucel (hydroxypropylcellulose) (HPC)
# [7] = dose: 600.0 mg/kg/injection, schedule: Q04DX003 (sc), vehicle: saline with Tween-80
# [8] = dose: 1200.0 mg/kg/injection, schedule: Q04DX003 (sc), vehicle: saline with Tween-80
# [9] = dose: 2400.0 mg/kg/injection, schedule: Q04DX003 (sc), vehicle: saline with Tween-80
# [10] = dose: 100.0 mg/kg/injection, schedule: Q01DX010 (sc), vehicle: saline with Tween-80
# [11] = dose: 400.0 mg/kg/injection, schedule: Q01DX010 (sc), vehicle: saline with Tween-80
# [12] = dose: 300.0 mg/kg/injection, schedule: Q04DX003 (sc), vehicle: saline with Tween-80
# [13] = dose: 75.0 mg/kg/injection, schedule: Q04DX003 (sc), vehicle: Klucel (hydroxypropylcellulose) (HPC)
# [14] = dose: 150.0 mg/kg/injection, schedule: Q04DX003 (sc), vehicle: saline with Tween-80
smiles,measurement,setting,value
OCC1(CO)COC2(CCCCC2)N1,T/C,[1],107 % of control
same,T/C,[2],75 % of control
same,T/C,"dose: 200.0 mg/kg/injection, schedule: Q01DX010 (sc), vehicle: suspension in saline",83 % of control
same,T/C,"dose: 400.0 mg/kg/injection, schedule: Q01DX010 (sc), vehicle: suspension in saline",56 % of control
same,T/C,"dose: 800.0 mg/kg/injection, schedule: Q01DX010 (sc), vehicle: suspension in saline",63 % of control
same,T/C,"dose: 1600.0 mg/kg/injection, schedule: Q01DX010 (sc), vehicle: suspension in saline",105 % of control
NC(=O)NO,T/C,[2],44 % of control
same,T/C,"dose: 400.0 mg/kg/injection, schedule: Q01DX010 (sc), vehicle: saline",49 % of control
C(C#CCN1CCOCC1)#CCN1CCOCC1,T/C,[3],72 % of control
same,T/C,[4],84 % of control
same,T/C,[5],61 % of control
C=C(c1ccc(OC)c(OC)c1)c1nccc2cc(OC)c(OC)cc12,T/C,[6],91 % of control
same,T/C,[3],71 % of control
same,T/C,[4],89 % of control
same,T/C,[5],54 % of control
CC1CN1C(=O)NCCCCCCNC(=O)N1CC1C (configuration not stated),T/C,"dose: 5.0 mg/kg/injection, schedule: Q04DX003 (sc), vehicle: Klucel (hydroxypropylcellulose) (HPC)",21 % of control
same,T/C,"dose: 40.0 mg/kg/injection, schedule: Q04DX003 (sc), vehicle: Klucel (hydroxypropylcellulose) (HPC)",-86 % of control and -63 % of control
c1ccc(CN2CCOC2)cc1,T/C,"dose: 25.0 mg/kg/injection, schedule: Q01DX010 (sc), vehicle: saline",60 % of control
same,T/C,[1],78 % of control
same,T/C,"dose: 100.0 mg/kg/injection, schedule: Q01DX010 (sc), vehicle: saline",70 % of control
same,T/C,[2],47 % of control
O=c1[nH]cc(F)c(=O)[nH]1,T/C,"dose: 10.0 mg/kg/injection, schedule: Q01DX010 (sc), vehicle: saline",67 % of control and 90 % of control
same,T/C,"dose: 50.0 mg/kg/injection, schedule: Q04DX003 (sc), vehicle: saline",44 % of control and 54 % of control and 55 % of control
same,T/C,"dose: 100.0 mg/kg/injection, schedule: Q04DX003 (sc), vehicle: saline",13 % of control
CCC1CC2CN(CCc3c([nH]c4ccccc34)C(C(=O)OC)(c3cc4c(cc3OC)N(C)C3C(O)(C(=O)OC)C(OC(C)=O)C5(CC)C=CCN6CCC43C65)C2)C1 (configuration not stated),T/C,"dose: 4.0 mg/kg/injection, schedule: Q04DX003 (sc), vehicle: saline",36 % of control
same,T/C,"dose: 8.0 mg/kg/injection, schedule: Q04DX003 (sc), vehicle: saline",4 % of control
same,T/C,"dose: 8.0 mg/kg/injection, schedule: Q04DX003 (sc), vehicle: water",25 % of control
same,T/C,"dose: 16.0 mg/kg/injection, schedule: Q04DX003 (sc), vehicle: saline",-86 % of control
O=C(O)c1ccc(C(=O)O)c(C(=O)O)c1.[NH-]C1CCCCC1[NH-].[Pt+2],T/C,"dose: 3.12 mg/kg/injection, schedule: Q01DX010 (sc), vehicle: sodium bicarbonate",10 % of control and 27 % of control
same,T/C,"dose: 6.25 mg/kg/injection, schedule: Q01DX010 (sc), vehicle: sodium bicarbonate",1 % of control and 2 % of control
NCC1CCC(C(=O)O)CC1 (configuration not stated),T/C,[7],115 % of control
same,T/C,[8],76 % of control
same,T/C,[9],155 % of control
NC(=O)CC(N)C(=O)O (configuration not stated),T/C,"dose: 1600.0 mg/kg/injection, schedule: Q04DX003 (sc), vehicle: saline",88 % of control
same,T/C,"dose: 3200.0 mg/kg/injection, schedule: Q04DX003 (sc), vehicle: saline",68 % of control
same,T/C,"dose: 6400.0 mg/kg/injection, schedule: Q04DX003 (sc), vehicle: saline",90 % of control
O=c1[nH]c(=O)n(C2CC(O)C(CO)O2)cc1I (configuration not stated),T/C,[10],55 % of control
same,T/C,"dose: 200.0 mg/kg/injection, schedule: Q01DX010 (sc), vehicle: saline with Tween-80",38 % of control
same,T/C,[11],48 % of control
O=C(NC1CCCCC1)OCc1c(COC(=O)NC2CCCCC2)c(-c2ccc(Cl)c(Cl)c2)n2c1CCC2,T/C,[12],114 % of control
same,T/C,[7],114 % of control
same,T/C,[8],107 % of control
same,T/C,[9],109 % of control
CCCN1COC(OCC)C(C)(C)C1 (configuration not stated),T/C,[12],98 % of control
same,T/C,[7],94 % of control
same,T/C,[8],73 % of control
CCN(CC)c1ccc2cc(-c3nc4ccccc4n3C)c(=O)oc2c1,T/C,[13],119 % of control
same,T/C,[6],104 % of control
same,T/C,[3],123 % of control
COc1ccc2c(c1[N+](=O)[O-])CC[C@@H]1[C@@H]2CC[C@]2(C)C(=O)CC[C@@H]12,T/C,"dose: 150.0 mg/kg/injection, schedule: Q04DX003 (ip), vehicle: saline with Tween-80",90 % of control
same,T/C,"dose: 300.0 mg/kg/injection, schedule: Q04DX003 (ip), vehicle: saline with Tween-80",111 % of control
same,T/C,"dose: 1200.0 mg/kg/injection, schedule: Q04DX003 (ip), vehicle: saline with Tween-80",102 % of control
CCCCCC[Se][Se]CCCCCC,T/C,[13],98 % of control
same,T/C,[6],80 % of control
same,T/C,[3],102 % of control and 114 % of control
O=[Te]=O,T/C,"dose: 12.5 mg/kg/injection, schedule: Q04DX003 (sc), vehicle: suspension in saline",91 % of control
same,T/C,"dose: 25.0 mg/kg/injection, schedule: Q04DX003 (sc), vehicle: suspension in saline",79 % of control
same,T/C,"dose: 50.0 mg/kg/injection, schedule: Q04DX003 (sc), vehicle: suspension in saline",122 % of control
CC(=O)OCC1OC(OC2=C(CC=C(C)C)C(=O)c3ccccc3C2=O)C(OC(C)=O)C(OC(C)=O)C1OC(C)=O (configuration not stated),T/C,"dose: 400.0 mg/kg/injection, schedule: Q01DX010 (sc), vehicle: Klucel (hydroxypropylcellulose) (HPC)",194 % of control
same,T/C,"dose: 800.0 mg/kg/injection, schedule: Q01DX010 (sc), vehicle: Klucel (hydroxypropylcellulose) (HPC)",52 % of control
CC1(C)OC1CS(=O)c1ccccc1 (configuration not stated),T/C,[7],121 % of control
Clc1ccc(C(c2ccccc2Cl)C(Cl)Cl)cc1 (configuration not stated),T/C,"dose: 1200.0 mg/kg/injection, schedule: Q04DX003 (sc), vehicle: saline",85 % of control
same,T/C,"dose: 2400.0 mg/kg/injection, schedule: Q04DX003 (sc), vehicle: saline",98 % of control
same,T/C,"dose: 4800.0 mg/kg/injection, schedule: Q04DX003 (sc), vehicle: saline",83 % of control
same,T/C,"dose: 9600.0 mg/kg/injection, schedule: Q04DX003 (sc), vehicle: saline",39 % of control
CN(C)N=Nc1cccc(C(N)=O)c1,T/C,"dose: 25.0 mg/kg/injection, schedule: Q04DX003 (sc), vehicle: Klucel (hydroxypropylcellulose) (HPC)",100 % of control
same,T/C,"dose: 50.0 mg/kg/injection, schedule: Q04DX003 (sc), vehicle: Klucel (hydroxypropylcellulose) (HPC)",52 % of control and 59 % of control and 64 % of control
same,T/C,[6],4 % of control
COc1cc(OC)c(OC)cc1/C=C\c1ccnc2ccccc12,T/C,[3],85 % of control
same,T/C,[4],110 % of control
same,T/C,[5],99 % of control
CCN(CC)c1ccc2[nH]c3c(C(N)=O)cc(=O)c(=O)c=3oc2c1,T/C,[14],88 % of control
same,T/C,[12],84 % of control
same,T/C,[8],101 % of control
CCC(C(=O)O)C(=O)O.[NH2-].[NH2-].[Pt+2],T/C,"dose: 75.0 mg/kg/injection, schedule: Q04DX003 (sc), vehicle: saline",-95 % of control
same,T/C,"dose: 150.0 mg/kg/injection, schedule: Q04DX003 (sc), vehicle: saline",-82 % of control
same,T/C,"dose: 300.0 mg/kg/injection, schedule: Q04DX003 (sc), vehicle: saline",-99 % of control
O=C(Nc1nncs1)c1cccs1,T/C,[12],98 % of control
same,T/C,[7],177 % of control
same,T/C,[8],115 % of control
same,T/C,[9],65 % of control
C[CH2][Ge]([CH2]C)[CH2]C.C[CH2][Ge]([CH2]C)[CH2]C.C[CH2][Ge]([CH2]C)[O][Ge]([CH2]C)[CH2]C,T/C,[14],109 % of control
same,T/C,[12],79 % of control
Cc1ncc([N+](=O)[O-])n1CCSC(N)=O,T/C,"dose: 50.0 mg/kg/injection, schedule: Q01DX010 (sc), vehicle: saline with Tween-80",103 % of control
same,T/C,[10],15 % of control
same,T/C,"dose: 200.0 mg/kg/injection, schedule: Q01DX009 (sc), vehicle: saline with Tween-80",17 % of control
same,T/C,"dose: 400.0 mg/kg/injection, schedule: Q01DX009 (sc), vehicle: saline with Tween-80",42 % of control
same,T/C,[11],77 % of control and 83 % of control and 86 % of control
same,T/C,"dose: 800.0 mg/kg/injection, schedule: Q01DX009 (sc), vehicle: saline with Tween-80",5 % of control
CN(C)CCN1C(=O)c2cccc3cc([N+](=O)[O-])cc(c23)C1=O,T/C,"dose: 9.0 mg/kg/injection, schedule: Q04DX003 (sc), vehicle: saline with Tween-80",52 % of control
same,T/C,"dose: 18.0 mg/kg/injection, schedule: Q04DX003 (sc), vehicle: saline with Tween-80",43 % of control
same,T/C,"dose: 36.0 mg/kg/injection, schedule: Q04DX003 (sc), vehicle: saline with Tween-80",55 % of control
